Where two headings read alike, the source gives them in different places.
What was measured:
[1] = test system: E. coli ATCC 25922 (SEN) and E. coli NCTC13846 (MDR); experiment: Frequency-of-resistance (FoR) assay, relative MIC of mutants; format: cell-based, Escherichia coli; conditions: for MIC: Escherichia coli
Experimental: The susceptibility of antibiotics to resistance development was evaluated in two strains of each bacterial species: a multidrug-resistant strain and an antibiotic-sensitive strain of Escherichia coli, Klebsiella pneumoniae, Acinetobacter baumannii, and Pseudomonas aeruginosa. To explore first-step resistance, we previously used a standard protocol for spontaneous frequency-of-resistance analysis (FoR assay) at multiple concentrations of each antibiotic[10],[28],[31]–[33]. […] For all other combinations, approximately 10^10 bacterial cells were exposed to one of each antibiotic on agar plates for two days at concentrations where the given strain is susceptible. We examined resistance levels by contrasting the minimum inhibitory concentration (MICs) of the mutated strains to the original wild-type bacterial strain (i.e., relative MIC).
To estimate the frequency of spontaneous mutations that confer resistance in a microbial population, we conducted a frequency of resistance (FoR) assay following established protocols[10],[31]–[33]. […] Prior to plating, bacteria were grown overnight in MHB medium at 37 °C and 250 RPM, then centrifuged and washed in MHB. All experiments were performed in triplicate, and plates were incubated at 37 °C for 48 hours. Total colony-forming units (CFUs) were determined by plating appropriate dilutions onto antibiotic-free MHB agar. Resistance frequencies were calculated by dividing the number of resistant colonies by the initial viable cell count. From the plates with the highest antibiotic concentration, ten colonies were selected for MIC determination and whole-genome sequencing.
A robotic liquid handling system was used to automatically prepare a 11 to 16-step serial dilution in 384-well microtiter plates (Greiner). A final concentration of 5 × 10^5 bacterial cells per mL were inoculated into each well containing 60 µL MHB medium. Bacterial cultures were incubated at 37 °C with continuous shaking (Infors shaker, 900 rpm with 3 mm throw) for 18 hours (2 replicates from each). Cell growth was monitored by measuring the optical density (OD600 values, using Biotek Synergy microplate reader). MIC was defined as the antibiotic concentration of complete growth inhibition (i.e., OD600 < 0.05). Relative MIC was calculated as follows:1 relativeMIC=MICevolved/MICancestor […]
Supplementary Figure 3. Resistance levels following the frequency of resistance assay across bacterial strains. The level of resistance was measured as the fold change in relative MIC between evolved and ancestral strains. Data are grouped by bacterial strain (A. baumannii (AB), E. coli (EC), K. pneumoniae (KP), and P. aeruginosa (PA)) and categorized as either multidrug-resistant (MDR) or sensitive (SEN). Each data point represents a laboratory evolved line, and boxplots show the median, first and third quartiles, with whiskers indicating the 5th and 95th percentiles. […]
analysis was performed using two-sided Dunn’s post-hoc test with Benjamini-Hochberg correction for multiple comparisons (**/ * indicates p < 0.01/ 0.05). For detailed information on antibiotic and bacterial species, see Supplementary Table 1. For mode of action groups, refer to Table 1. Source data are provided as a Source Data file.

[2] = test system: A. baumannii ATCC 17978 (SEN) and A. baumannii ATCC BAA-1605 (MDR); experiment: Adaptive laboratory evolution (ALE), relative MIC of evolved lines; format: cell-based, Acinetobacter baumannii
How it was run: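 Ten parallel populations per antibiotic–ancestor pair were evolved in MHB at 37 °C, starting near 50% growth-inhibiting drug. Every 72 h they were passaged into 0.5–2.5× increasing concentrations, keeping the highest-drug well with OD600 > 0.2.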

[3] = E. coli NCTC 13846 (EC-MDR), evolved line 1, evolved vs ancestor
[4] = E. coli NCTC 13846 (EC-MDR), evolved line 2, evolved vs ancestor
[5] = E. coli NCTC 13846 (EC-MDR), evolved line 3, evolved vs ancestor
[6] = Escherichia coli ATCC 25922 (EC-SEN), evolved line 1 versus ancestor
[7] = Escherichia coli ATCC 25922 (EC-SEN), evolved line 2 versus ancestor
[8] = Escherichia coli ATCC 25922 (EC-SEN), evolved line 3 versus ancestor
[9] = read-out: MIC of evolved line, Escherichia coli ATCC 25922 (EC-SEN), evolved line 1
[10] = read-out: MIC of evolved line, Escherichia coli ATCC 25922 (EC-SEN), evolved line 2
[11] = read-out: MIC of evolved line, Escherichia coli ATCC 25922 (EC-SEN), evolved line 3
[12] = AB-SEN (Acinetobacter baumannii ATCC 17978), evolved line 4 adapted to the named antibiotic
[13] = AB-SEN (Acinetobacter baumannii ATCC 17978), evolved line 7 adapted to the named antibiotic
[14] = AB-SEN, Acinetobacter baumannii ATCC 17978, evolved line 2 versus ancestor
[15] = AB-SEN, Acinetobacter baumannii ATCC 17978, evolved line 3 versus ancestor
[16] = AB-SEN, Acinetobacter baumannii ATCC 17978, evolved line 4 versus ancestor
[17] = AB-SEN, Acinetobacter baumannii ATCC 17978, evolved line 6 versus ancestor
[18] = AB-SEN, Acinetobacter baumannii ATCC 17978, evolved line 7 versus ancestor
[19] = AB-SEN, Acinetobacter baumannii ATCC 17978, evolved line 8 versus ancestor
[20] = AB-SEN, Acinetobacter baumannii ATCC 17978, evolved line 9 versus ancestor
[21] = AB-SEN, Acinetobacter baumannii ATCC 17978, evolved line 10 versus ancestor
[22] = AB-SEN (Acinetobacter baumannii ATCC 17978), evolved line 1
[23] = AB-SEN (Acinetobacter baumannii ATCC 17978), evolved line 1 adapted to the named antibiotic
[24] = AB-SEN (Acinetobacter baumannii ATCC 17978), evolved line 2
[25] = AB-SEN (Acinetobacter baumannii ATCC 17978), evolved line 3
[26] = AB-SEN (Acinetobacter baumannii ATCC 17978), evolved line 4
[27] = AB-SEN (Acinetobacter baumannii ATCC 17978), evolved line 6
[28] = AB-SEN (Acinetobacter baumannii ATCC 17978), evolved line 8
[29] = AB-SEN (Acinetobacter baumannii ATCC 17978), evolved line 8 adapted to the named antibiotic
[30] = AB-SEN (Acinetobacter baumannii ATCC 17978), evolved line 9
[31] = AB-SEN (Acinetobacter baumannii ATCC 17978), evolved line 10
[32] = AB-SEN, Acinetobacter baumannii ATCC 17978, evolved line 7

CNC(C)C1CCC(N)C(OC2C(N)CC(N)C(OC3OCC(C)(O)C(NC)C3O)C2O)O1 (centres unmarked) [Gentamicin]
Relative MIC [1, 3]: 8
Relative MIC [1, 4]: 4
Relative MIC [1, 5]: 4
Relative MIC [1, 6]: 16
Relative MIC [1, 7]: 16
Relative MIC [1, 8]: 8
MIC ([1]; read-out: MIC of evolved line, E. coli NCTC 13846 (EC-MDR), evolved line 1): 8 µg/mL
MIC ([1]; read-out: MIC of evolved line, E. coli NCTC 13846 (EC-MDR), evolved line 2): 4 µg/mL
MIC ([1]; read-out: MIC of evolved line, E. coli NCTC 13846 (EC-MDR), evolved line 3): 4 µg/mL
MIC [1, 9]: 16 µg/mL
MIC [1, 10]: 16 µg/mL
MIC [1, 11]: 8 µg/mL
Relative MIC (log10) ([2]; AB-SEN (Acinetobacter baumannii ATCC 17978), evolved line 2 adapted to the named antibiotic): 2.709
Relative MIC (log10) [2, 12]: 2.709
Relative MIC (log10) ([2]; AB-SEN (Acinetobacter baumannii ATCC 17978), evolved line 5 adapted to the named antibiotic): 2.709
Relative MIC (log10) [2, 13]: 2.709
Relative MIC (log10) ([2]; AB-SEN (Acinetobacter baumannii ATCC 17978), evolved line 10 adapted to the named antibiotic): 2.709
Relative MIC [2, 14]: 512
Relative MIC [2, 15]: 256
Relative MIC [2, 16]: 512
Relative MIC ([2]; AB-SEN, Acinetobacter baumannii ATCC 17978, evolved line 5 versus ancestor): 512
Relative MIC [2, 17]: 256
Relative MIC [2, 18]: 512
Relative MIC [2, 19]: 128
Relative MIC [2, 20]: 128
Relative MIC [2, 21]: 512
Relative MIC ([2]; Acinetobacter baumannii ATCC 17978 (AB-SEN), evolved line 2): 512
Relative MIC ([2]; Acinetobacter baumannii ATCC 17978 (AB-SEN), evolved line 3): 256
Relative MIC ([2]; Acinetobacter baumannii ATCC 17978 (AB-SEN), evolved line 4): 512
Relative MIC ([2]; Acinetobacter baumannii ATCC 17978 (AB-SEN), evolved line 5): 512
Relative MIC ([2]; Acinetobacter baumannii ATCC 17978 (AB-SEN), evolved line 6): 256
Relative MIC ([2]; Acinetobacter baumannii ATCC 17978 (AB-SEN), evolved line 7): 512
Relative MIC ([2]; Acinetobacter baumannii ATCC 17978 (AB-SEN), evolved line 8): 128
Relative MIC ([2]; Acinetobacter baumannii ATCC 17978 (AB-SEN), evolved line 9): 128
Relative MIC ([2]; Acinetobacter baumannii ATCC 17978 (AB-SEN), evolved line 10): 512

O=c1ccc2ncc(=O)n3c2n1C[C@H]3CN1CCC(NCc2cc3c(cn2)OCCC3)CC1 [Gepotidacin]
Relative MIC [1, 3]: 1
Relative MIC [1, 4]: 1
Relative MIC [1, 5]: 1
Relative MIC [1, 6]: 1
Relative MIC [1, 7]: 1
Relative MIC [1, 8]: 1
Relative MIC [2, 22]: 64
Relative MIC (log10) [2, 23]: 1.806
Relative MIC [2, 24]: 128
Relative MIC [2, 25]: 128
Relative MIC [2, 26]: 64
Relative MIC (log10) [2, 12]: 1.806
Relative MIC [2, 27]: 128
Relative MIC (log10) [2, 13]: 1.806
Relative MIC [2, 28]: 64
Relative MIC (log10) [2, 29]: 1.806
Relative MIC [2, 30]: 64
Relative MIC (log10) ([2]; AB-SEN (Acinetobacter baumannii ATCC 17978), evolved line 9 adapted to the named antibiotic): 1.806
Relative MIC [2, 31]: 64
Relative MIC ([2]; AB-SEN, Acinetobacter baumannii ATCC 17978, evolved line 1 versus ancestor): 64
Relative MIC [2, 14]: 128
Relative MIC [2, 15]: 128
Relative MIC [2, 16]: 64
Relative MIC [2, 17]: 128
Relative MIC [2, 18]: 64
Relative MIC [2, 19]: 64
Relative MIC [2, 20]: 64
Relative MIC [2, 21]: 64
Relative MIC [2, 32]: 64

CN(C)c1cc(CNCC(C)(C)C)c(O)c2c1C[C@H]1C[C@H]3[C@H](N(C)C)C(O)=C(C(N)=O)C(=O)[C@@]3(O)C(O)=C1C2=O [Omadacycline]
Relative MIC [1, 6]: 2
Relative MIC [1, 7]: 2
Relative MIC [1, 8]: 2
MIC [1, 9]: 4 µg/mL
MIC [1, 10]: 4 µg/mL
MIC [1, 11]: 4 µg/mL
Relative MIC [2, 22]: 32
Relative MIC (log10) [2, 23]: 1.505
Relative MIC [2, 24]: 64
Relative MIC [2, 25]: 64
Relative MIC (log10) ([2]; AB-SEN (Acinetobacter baumannii ATCC 17978), evolved line 3 adapted to the named antibiotic): 1.806
Relative MIC [2, 26]: 32
Relative MIC ([2]; AB-SEN (Acinetobacter baumannii ATCC 17978), evolved line 5): 128
Relative MIC [2, 27]: 128
Relative MIC (log10) ([2]; AB-SEN (Acinetobacter baumannii ATCC 17978), evolved line 6 adapted to the named antibiotic): 2.107
Relative MIC (log10) [2, 13]: 1.806
Relative MIC [2, 28]: 64
Relative MIC (log10) [2, 29]: 1.806
Relative MIC [2, 30]: 32
Relative MIC [2, 31]: 32
Relative MIC ([2]; AB-SEN ATCC 17978, evolved line 1, evolved line vs ancestor): 32
Relative MIC ([2]; AB-SEN ATCC 17978, evolved line 2, evolved line vs ancestor): 64
Relative MIC ([2]; AB-SEN ATCC 17978, evolved line 3, evolved line vs ancestor): 64
Relative MIC ([2]; AB-SEN ATCC 17978, evolved line 4, evolved line vs ancestor): 32
Relative MIC ([2]; AB-SEN ATCC 17978, evolved line 5, evolved line vs ancestor): 128
Relative MIC ([2]; AB-SEN ATCC 17978, evolved line 6, evolved line vs ancestor): 128
Relative MIC ([2]; AB-SEN ATCC 17978, evolved line 7, evolved line vs ancestor): 64
Relative MIC ([2]; AB-SEN ATCC 17978, evolved line 8, evolved line vs ancestor): 64
Relative MIC ([2]; AB-SEN ATCC 17978, evolved line 9, evolved line vs ancestor): 32
Relative MIC ([2]; AB-SEN ATCC 17978, evolved line 10, evolved line vs ancestor): 32
Relative MIC [2, 32]: 64
